Measurements as given in patent publication US20230266302A1, “SYNTHESIS AND USE OF N-BENZYL SULFONAMIDES” (THE UNIVERSITY OF TULSA, priority 2020, published 2023).

system: BxPC3 (pancreatic cancer); assay: ATP level assay (CellTiter-Glo), percent of control; assay type: cell-based; settings: Homo sapiens, BXPC-3, 2 h; compound alone, 100 uM, two hour incubation, control DMSO; read-out: POC (percent of control) BxPC3

Compound | activity at 100 µM [%]
COc1ccc(S(=O)(=O)NCc2c[nH]c3ccccc23)cc1 [Compound 23, N-(1H-indol-3-ylmethyl)-4-methoxybenzenesulfonamide] | 95.9

same assay, conditions: compound 100 uM + rotenone (approximately 1.25 μM), two hour incubation

Compound | POC (percent of control) BxPC3
COc1ccc(S(=O)(=O)NCc2c[nH]c3ccccc23)cc1 [Compound 23, N-(1H-indol-3-ylmethyl)-4-methoxybenzenesulfonamide] | 78.5% of control

system: H293 (kidney cancer); assay: as above; assay type: cell-based; settings: 2 h; compound alone, 100 uM, two hour incubation, control DMSO; read-out: POC (percent of control) H293

Compound | activity at 100 µM [%]
COc1ccc(S(=O)(=O)NCc2c[nH]c3ccccc23)cc1 [Compound 23, N-(1H-indol-3-ylmethyl)-4-methoxybenzenesulfonamide] | 92.1

same assay, conditions: compound 100 uM + 2DG (about 10-20 mM), two hour incubation

Compound | POC (percent of control) H293
COc1ccc(S(=O)(=O)NCc2c[nH]c3ccccc23)cc1 [Compound 23, N-(1H-indol-3-ylmethyl)-4-methoxybenzenesulfonamide] | 47.4% of control

same assay, conditions: compound 100 uM + rotenone (approximately 1.25 μM), two hour incubation

Compound | POC (percent of control) H293
COc1ccc(S(=O)(=O)NCc2c[nH]c3ccccc23)cc1 [Compound 23, N-(1H-indol-3-ylmethyl)-4-methoxybenzenesulfonamide] | 65.3% of control

system: HDF (normal cells); assay: as above; assay type: cell-based; settings: 2 h; compound alone, 100 uM, two hour incubation, control DMSO; read-out: POC (percent of control) HDF

Compound | activity at 100 µM [%]
COc1ccc(S(=O)(=O)NCc2c[nH]c3ccccc23)cc1 [Compound 23, N-(1H-indol-3-ylmethyl)-4-methoxybenzenesulfonamide] | 74.6

same assay, conditions: compound 100 uM + 2DG (about 10-20 mM), two hour incubation

Compound | POC (percent of control) HDF
COc1ccc(S(=O)(=O)NCc2c[nH]c3ccccc23)cc1 [Compound 23, N-(1H-indol-3-ylmethyl)-4-methoxybenzenesulfonamide] | 90.6% of control

same assay, conditions: compound 100 uM + rotenone (approximately 1.25 μM), two hour incubation

Compound | POC (percent of control) HDF
COc1ccc(S(=O)(=O)NCc2c[nH]c3ccccc23)cc1 [Compound 23, N-(1H-indol-3-ylmethyl)-4-methoxybenzenesulfonamide] | 119.9% of control

system: HeLa (cervical cancer); assay: as above; assay type: cell-based; settings: Homo sapiens, HeLa, 2 h; compound alone, 100 uM, two hour incubation, control DMSO; read-out: POC (percent of control) HeLa

Compound | activity at 100 µM [%]
COc1ccc(S(=O)(=O)NCc2c[nH]c3ccccc23)cc1 [Compound 23, N-(1H-indol-3-ylmethyl)-4-methoxybenzenesulfonamide] | 84.1

same assay, conditions: compound 100 uM + 2DG (about 10-20 mM), two hour incubation

Compound | POC (percent of control) HeLa
COc1ccc(S(=O)(=O)NCc2c[nH]c3ccccc23)cc1 [Compound 23, N-(1H-indol-3-ylmethyl)-4-methoxybenzenesulfonamide] | 86.9% of control

same assay, conditions: compound 100 uM + rotenone (approximately 1.25 μM), two hour incubation

Compound | POC (percent of control) HeLa
COc1ccc(S(=O)(=O)NCc2c[nH]c3ccccc23)cc1 [Compound 23, N-(1H-indol-3-ylmethyl)-4-methoxybenzenesulfonamide] | 93.7% of control

system: MCF10A (non-cancerous breast); assay: as above; assay type: cell-based; settings: Homo sapiens, MCF-10A, 2 h; compound alone, 100 uM, two hour incubation, control DMSO; read-out: POC (percent of control) MCF10A

Compound | activity at 100 µM [%]
COc1ccc(S(=O)(=O)NCc2c[nH]c3ccccc23)cc1 [Compound 23, N-(1H-indol-3-ylmethyl)-4-methoxybenzenesulfonamide] | 85

same assay, conditions: compound 100 uM + 2DG (about 10-20 mM), two hour incubation

Compound | POC (percent of control) MCF10A
COc1ccc(S(=O)(=O)NCc2c[nH]c3ccccc23)cc1 [Compound 23, N-(1H-indol-3-ylmethyl)-4-methoxybenzenesulfonamide] | 82.8% of control

same assay, conditions: compound 100 uM + rotenone (approximately 1.25 μM), two hour incubation

Compound | POC (percent of control) MCF10A
COc1ccc(S(=O)(=O)NCc2c[nH]c3ccccc23)cc1 [Compound 23, N-(1H-indol-3-ylmethyl)-4-methoxybenzenesulfonamide] | 85.1% of control

system: MCF7 (breast cancer); assay: as above; assay type: cell-based; settings: Homo sapiens, MCF7, 2 h; compound alone, 100 uM, two hour incubation, control DMSO; read-out: POC (percent of control) MCF7

Compound | activity at 100 µM [%]
COc1ccc(S(=O)(=O)NCc2c[nH]c3ccccc23)cc1 [Compound 23, N-(1H-indol-3-ylmethyl)-4-methoxybenzenesulfonamide] | 96.3

same assay, conditions: compound 100 uM + 2DG (about 10-20 mM), two hour incubation

Compound | POC (percent of control) MCF7
COc1ccc(S(=O)(=O)NCc2c[nH]c3ccccc23)cc1 [Compound 23, N-(1H-indol-3-ylmethyl)-4-methoxybenzenesulfonamide] | 93.6% of control

same assay, conditions: compound 100 uM + rotenone (approximately 1.25 μM), two hour incubation

Compound | POC (percent of control) MCF7
COc1ccc(S(=O)(=O)NCc2c[nH]c3ccccc23)cc1 [Compound 23, N-(1H-indol-3-ylmethyl)-4-methoxybenzenesulfonamide] | 121.1% of control

system: MDA-MB (breast cancer); assay: as above; assay type: cell-based; settings: 2 h; compound alone, 100 uM, two hour incubation, control DMSO; read-out: POC (percent of control) MDA-MB

Compound | activity at 100 µM [%]
COc1ccc(S(=O)(=O)NCc2c[nH]c3ccccc23)cc1 [Compound 23, N-(1H-indol-3-ylmethyl)-4-methoxybenzenesulfonamide] | 98.6

same assay, conditions: compound 100 uM + 2DG (about 10-20 mM), two hour incubation

Compound | POC (percent of control) MDA-MB
COc1ccc(S(=O)(=O)NCc2c[nH]c3ccccc23)cc1 [Compound 23, N-(1H-indol-3-ylmethyl)-4-methoxybenzenesulfonamide] | 85.9% of control

same assay, conditions: compound 100 uM + rotenone (approximately 1.25 μM), two hour incubation

Compound | POC (percent of control) MDA-MB
COc1ccc(S(=O)(=O)NCc2c[nH]c3ccccc23)cc1 [Compound 23, N-(1H-indol-3-ylmethyl)-4-methoxybenzenesulfonamide] | 83% of control

system: NCI-H196 (lung cancer); assay: as above; assay type: cell-based; settings: NCI-H196, 2 h; compound alone, 100 uM, two hour incubation, control DMSO; read-out: POC (percent of control) NCI-H196

Compound | activity at 100 µM [%]
COc1ccc(S(=O)(=O)NCc2c[nH]c3ccccc23)cc1 [Compound 23, N-(1H-indol-3-ylmethyl)-4-methoxybenzenesulfonamide] | 93

same assay, conditions: compound 100 uM + 2DG (about 10-20 mM), two hour incubation

Compound | POC (percent of control) NCI-H196
COc1ccc(S(=O)(=O)NCc2c[nH]c3ccccc23)cc1 [Compound 23, N-(1H-indol-3-ylmethyl)-4-methoxybenzenesulfonamide] | 83.5% of control

same assay, conditions: compound 100 uM + rotenone (approximately 1.25 μM), two hour incubation

Compound | POC (percent of control) NCI-H196
COc1ccc(S(=O)(=O)NCc2c[nH]c3ccccc23)cc1 [Compound 23, N-(1H-indol-3-ylmethyl)-4-methoxybenzenesulfonamide] | 85.6% of control

system: PC3 (prostate cancer); assay: as above; assay type: cell-based; settings: 2 h; compound alone, 100 uM, two hour incubation, control DMSO; read-out: POC (percent of control) PC3

Compound | activity at 100 µM [%]
COc1ccc(S(=O)(=O)NCc2c[nH]c3ccccc23)cc1 [Compound 23, N-(1H-indol-3-ylmethyl)-4-methoxybenzenesulfonamide] | 77.3

same assay, conditions: compound 100 uM + 2DG (about 10-20 mM), two hour incubation

Compound | POC (percent of control) PC3
COc1ccc(S(=O)(=O)NCc2c[nH]c3ccccc23)cc1 [Compound 23, N-(1H-indol-3-ylmethyl)-4-methoxybenzenesulfonamide] | 92.9% of control

same assay, conditions: compound 100 uM + rotenone (approximately 1.25 μM), two hour incubation

Compound | POC (percent of control) PC3
COc1ccc(S(=O)(=O)NCc2c[nH]c3ccccc23)cc1 [Compound 23, N-(1H-indol-3-ylmethyl)-4-methoxybenzenesulfonamide] | 87.9% of control

system: SkBr3 (breast cancer); assay: as above; assay type: cell-based; settings: Homo sapiens, SK-BR-3, 2 h; compound alone, 100 uM, two hour incubation, control DMSO; read-out: POC (percent of control) SkBr3

Compound | activity at 100 µM [%]
COc1ccc(S(=O)(=O)NCc2c[nH]c3ccccc23)cc1 [Compound 23, N-(1H-indol-3-ylmethyl)-4-methoxybenzenesulfonamide] | 85.9

same assay, conditions: compound 100 uM + 2DG (about 10-20 mM), two hour incubation

Compound | POC (percent of control) SkBr3
COc1ccc(S(=O)(=O)NCc2c[nH]c3ccccc23)cc1 [Compound 23, N-(1H-indol-3-ylmethyl)-4-methoxybenzenesulfonamide] | 75.5% of control

same assay, conditions: compound 100 uM + rotenone (approximately 1.25 μM), two hour incubation

Compound | POC (percent of control) SkBr3
COc1ccc(S(=O)(=O)NCc2c[nH]c3ccccc23)cc1 [Compound 23, N-(1H-indol-3-ylmethyl)-4-methoxybenzenesulfonamide] | 87.7% of control

system: T47D (breast cancer); assay: as above; assay type: cell-based; settings: Homo sapiens, T47D, 2 h; compound alone, 100 uM, two hour incubation, control DMSO; read-out: POC (percent of control) T47D

Compound | activity at 100 µM [%]
COc1ccc(S(=O)(=O)NCc2c[nH]c3ccccc23)cc1 [Compound 23, N-(1H-indol-3-ylmethyl)-4-methoxybenzenesulfonamide] | 54

same assay, conditions: compound 100 uM + 2DG (about 10-20 mM), two hour incubation

Compound | POC (percent of control) T47D
COc1ccc(S(=O)(=O)NCc2c[nH]c3ccccc23)cc1 [Compound 23, N-(1H-indol-3-ylmethyl)-4-methoxybenzenesulfonamide] | 46.6% of control

same assay, conditions: compound 100 uM + rotenone (approximately 1.25 μM), two hour incubation

Compound | POC (percent of control) T47D
COc1ccc(S(=O)(=O)NCc2c[nH]c3ccccc23)cc1 [Compound 23, N-(1H-indol-3-ylmethyl)-4-methoxybenzenesulfonamide] | 71.7% of control
